Experimental data published in patent publication US20220184222A1, “BICYCLE TOXIN CONJUGATES AND USES THEREOF” (BicycleTx Limited, priority 2019, published 2022).
Starred links: 1 amine or outer side, 2 acyl side, 3 side chain; linkers in the order of their positions; H or OH if unused. Non-standard residues stand in square brackets, D forms with d. Residues, ends and D or L forms follow the SMILES beside them. *: point of attachment. Dolaproine = CO[C@@H]([C@@H]1CCCN1)[C@@H](C)C(=O)O; Dil = CC[C@H](C)[C@H](NC)[C@@H](CC(=O)O)OC; PABC = O=C(OCc1ccc(N[*:1])cc1)[*:2]; X1 = O=C(CCCC(=O)*)ON1C(=O)CCC1=O; X2 = C[C@@H](N*)[C@@H](O)c1ccccc1; Cit = NC(=O)NCCC[C@H](N)C(=O)O; NMeV = CN[C@H](C(=O)O)C(C)C

System: CTG-1212
Experiment: Champions TumorGraft NSCLC PDX efficacy, model CTG-1212
Assay type: in vivo, Mus musculus
Description: Mice were implanted subcutaneously into the left flank with tumor fragments from one of the various models. After tumors grew to an average of 150-300 mm^3, mice were treated by IV administration Q7Dx4 (n=2) with vehicle or 3 mg/kg of BT5528. Effects on tumor growth were evaluated by measuring percent tumor growth inhibition (% TGI), and the number of complete responders (CR), partial responders (PR), and tumor-free survivors (TFS). Tolerability was assessed by body weight loss, lethality, and clinical signs of adverse treatment-related side effects. Tumor volumes and body weights were measured twice a week.
Dosing solutions of BT5528 […] were pre-formulated. These dosing solutions were stored at −80° C. in the dark. On each day of dosing, a frozen aliquot of each test agent was thawed, stored at 2-8° C. and used for dosing.
The animals used in this study are described below: • Species: Mus musculus • Strain: Athymic Nude-Foxn1^nu (immune-compromised) • Source: Envigo (Indianapolis, Ind., USA) • Number of animals per group: 2 • Age and sex: At least 6-8 weeks of age at start of dosing, female • Weight: At least 18 grams at start of dosing • Acclimation period: 3 days
Stock mice were implanted with tumor cells from Champions TumorGraft® models CTG-0160, CTG-0170, CTG-0178, CTG-0192, CTG-0363, CTG-0808, CTG-0838, CTG-0848, CTG-1212, CTG-1502, CTG-1535, CTG-2011, CTG-2393, CTG-2539 or CTG-2540. After the tumors reached 1000-1500 mm^3, they were harvested and the tumor fragments (approximately 5×5×5 mm^3) were implanted SC in the left flank of the female study mice. Each animal was implanted with a specific passage lot and documented. Tumor growth was monitored twice a week using digital calipers and the tumor volume (TV) was calculated using the formula (0.52×[length×width^2]). When the TV reached an average volume of 150-300 mm^3, animals were matched by tumor size and assigned into Vehicle Control and treatment groups (n=2/group) and dosing was initiated on Day 0. After the initiation of dosing on Day 0, animals were weighed twice per week using a digital scale and TV was measured twice per week and also on the final day of study. The study was completed when the mean tumor volume of Vehicle Control reached 1500 mm^3 or up to Day 60, whichever occurred first.
Beginning on Day 0, animals were observed daily and weighed twice weekly using a digital scale; data including individual and mean gram weights, mean percent weight change versus Day 0 (% vD0) were recorded for each group and % vD0 plotted at study completion. […] Treatment resulting in a mean % vD0>20% and/or >10% mortality was considered above the maximum tolerated dose. Maximum mean % vD0 (weight nadir) for each treatment group was reported at study completion.
Inhibition of tumor growth was determined by calculating the percent TGI (100%×[1−(final MTV−initial MTV of a treated group)/(final MTV−initial MTV of the control group)]). Treatment started on Day 0.
Additional endpoints used to evaluate efficacy were: the number of complete responders (CR), partial responders (PR), and tumor-free survivors (TFS). PRs were considered exclusive of CRs, as were TFS.
Statistical analyses of anti-tumor efficacy were performed using one-way ANOVA followed by Dunnett's multiple comparisons test (GraphPad Prism version 8.2.0). Significant p-values=<0.05.
Animals were dosed according to the schedule on Table 7-1. The study was terminated on Day 27.

[1] = CTG-1212, 3 mg/kg IV Q7Dx4, Day 0-27

CC[C@H](C)[C@@H]([C@@H](CC(=O)N1CCC[C@H]1[C@H](OC)[C@@H](C)C(=O)N[C@H](C)[C@@H](O)c1ccccc1)OC)N(C)C(=O)[C@@H](NC(=O)[C@H](C(C)C)N(C)C(=O)OCc1ccc(NC(=O)[C@H](CCCNC(N)=O)NC(=O)[C@@H](NC(=O)CCCC(=O)ON2C(=O)CCC2=O)C(C)C)cc1)C(C)C [BT5528] (X1-V[Cit][PABC][NMeV]V[Dil][Dolaproine]-X2)
mean body weight loss (3 mg/kg IV Q7Dx4): minor mean body weight losses
MTV (mean tumor volume) (3 mg/kg IV Q7Dx4, Day 27): 128±53 mm^3
TGI (3 mg/kg IV Q7Dx4, Day 27): 112%
# CR (complete responders) [1]: 0/0/0
# PR (partial responders) [1]: 0/0/0
# TFS (tumor-free survivors) [1]: 0/0/0
% TGI (CTG-1212, 3 mg/kg IV Q7Dx4, Day 27): 112%
Day 27 Tumor Volume Mean TV ± SEM (CTG-1212, BT5528 3 mg/kg IV Q7Dx4, Day 27, n=2): 128 ± 53 mm^3
